{"source": "ChEMBL document CHEMBL3885881", "about": "“DrugMatrix”", "species": "Rattus norvegicus", "assay": "DrugMatrix - Regimen: Daily Repeat", "type": "toxicity, organism-based, Sprague-Dawley", "design": "regimen Daily Repeat, gender Male, age 6-8 weeks", "conditions": "in vivo, sc, route mini-PUMP - SUBCUTANEOUS, vehicle 100 % SALINE; for TOTAL PROTEIN / ALANINE AMINOTRANSFERASE / ALBUMIN / ALKALINE PHOSPHATASE / ASPARTATE AMINOTRANSFERASE / BLOOD UREA NITROGEN / CARBON DIOXIDE / CHLORIDE / CHOLESTEROL / LACTATE DEHYDROGENASE / LIPASE / PHOSPHORUS / POTASSIUM / SODIUM / CREATININE / TOTAL BILIRUBIN: tissue Plasma; for ABSOLUTE BASOPHIL / ABSOLUTE EOSINOPHIL / ABSOLUTE LYMPHOCYTE / ABSOLUTE MONOCYTE / ABSOLUTE SEGMENTED NEUTROPHIL / BASOPHIL / EOSINOPHIL / ERYTHROCYTE COUNT / HEMOGLOBIN / LEUKOCYTE COUNT / LYMPHOCYTE / MEAN CORPUSCULAR HEMOGLOBIN / MEAN CORPUSCULAR HEMOGLOBIN CONCENTRATION / MEAN CORPUSCULAR VOLUME / NUCLEATED RED BLOOD CELLS / PLATELET COUNT: tissue Blood", "key": {"[1]": {"conditions": "0 mg/kg, 120 h, dose level Control, time 5 day"}, "[2]": {"conditions": "0 mg/kg, […], dose level Control, time 14 day"}, "[3]": {"conditions": "[…], dose 0.77 mg/Kg, dose level High, time 14 day"}}, "data": [{"compound": "CNC[C@H](O)c1ccc(O)c(O)c1", "note": "[EPINEPHRINE]", "values": [{"measurement": "TOTAL PROTEIN", "setting": "0 mg/kg, 72 h, dose level Control, time 3 day", "value": 6.05, "unit": "G/DL"}, {"measurement": "ABSOLUTE BASOPHIL", "setting": "[1]", "value": 0, "unit": "CELLS/uL"}, {"measurement": "ABSOLUTE EOSINOPHIL", "setting": "[1]", "value": 0, "unit": "CELLS/uL"}, {"measurement": "ABSOLUTE LYMPHOCYTE", "setting": "[1]", "value": 14257.33, "unit": "CELLS/uL"}, {"measurement": "ABSOLUTE MONOCYTE", "setting": "[1]", "value": 326, "unit": "CELLS/uL"}, {"measurement": "ABSOLUTE SEGMENTED NEUTROPHIL", "setting": "[1]", "value": 3216.67, "unit": "CELLS/uL"}, {"measurement": "BASOPHIL", "setting": "[1]", "value": 0, "unit": "%"}, {"measurement": "EOSINOPHIL", "setting": "[1]", "value": 0, "unit": "%"}, {"measurement": "ERYTHROCYTE COUNT", "setting": "[1]", "value": 6.11, "unit": "x10E6/uL"}, {"measurement": "HEMOGLOBIN", "setting": "[1]", "value": 13.18, "unit": "G/DL"}, {"measurement": "LEUKOCYTE COUNT", "setting": "[1]", "value": 17.8, "unit": "x10E3/uL"}, {"measurement": "LYMPHOCYTE", "setting": "[1]", "value": 80.5, "unit": "%"}, {"measurement": "MEAN CORPUSCULAR HEMOGLOBIN", "setting": "[1]", "value": 21.62, "unit": "pg"}, {"measurement": "MEAN CORPUSCULAR HEMOGLOBIN CONCENTRATION", "setting": "[1]", "value": 36.42, "unit": "G/DL"}, {"measurement": "MEAN CORPUSCULAR VOLUME", "setting": "[1]", "value": 59.37, "unit": "fL"}, {"measurement": "NUCLEATED RED BLOOD CELLS", "setting": "[1]", "value": "0 /100WBC"}, {"measurement": "PLATELET COUNT", "setting": "[1]", "value": 1311, "unit": "x10E3/uL"}, {"measurement": "ALANINE AMINOTRANSFERASE", "setting": "[1]", "value": 47, "unit": "u/L"}, {"measurement": "ALBUMIN", "setting": "[1]", "value": 3.83, "unit": "G/DL"}, {"measurement": "ALKALINE PHOSPHATASE", "setting": "[1]", "value": 260.33, "unit": "u/L"}, {"measurement": "ASPARTATE AMINOTRANSFERASE", "setting": "[1]", "value": 76.17, "unit": "u/L"}, {"measurement": "BLOOD UREA NITROGEN", "setting": "[1]", "value": 14.67, "unit": "mg/dL"}, {"measurement": "CARBON DIOXIDE", "setting": "[1]", "value": 31.33, "unit": "mmol/L"}, {"measurement": "CHLORIDE", "setting": "[1]", "value": 101.17, "unit": "MEQ/L"}, {"measurement": "CHOLESTEROL", "setting": "[1]", "value": 75, "unit": "mg/dL"}, {"measurement": "LACTATE DEHYDROGENASE", "setting": "[1]", "value": 147.33, "unit": "u/L"}, {"measurement": "LIPASE", "setting": "[1]", "value": 9.33, "unit": "u/L"}, {"measurement": "PHOSPHORUS", "setting": "[1]", "value": 10.97, "unit": "mg/dL"}, {"measurement": "POTASSIUM", "setting": "[1]", "value": 6, "unit": "MEQ/L"}, {"measurement": "SODIUM", "setting": "[1]", "value": 145.52, "unit": "MEQ/L"}, {"measurement": "TOTAL PROTEIN", "setting": "[1]", "value": 5.83, "unit": "G/DL"}, {"measurement": "ABSOLUTE BASOPHIL", "setting": "[2]", "value": 0, "unit": "CELLS/uL"}, {"measurement": "ABSOLUTE EOSINOPHIL", "setting": "[2]", "value": 64.5, "unit": "CELLS/uL"}, {"measurement": "ABSOLUTE LYMPHOCYTE", "setting": "[2]", "value": 12507.83, "unit": "CELLS/uL"}, {"measurement": "ABSOLUTE MONOCYTE", "setting": "[2]", "value": 380.33, "unit": "CELLS/uL"}, {"measurement": "ABSOLUTE SEGMENTED NEUTROPHIL", "setting": "[2]", "value": 2414, "unit": "CELLS/uL"}, {"measurement": "BASOPHIL", "setting": "[2]", "value": 0, "unit": "%"}, {"measurement": "EOSINOPHIL", "setting": "[2]", "value": 0.5, "unit": "%"}, {"measurement": "ERYTHROCYTE COUNT", "setting": "[2]", "value": 6.1, "unit": "x10E6/uL"}, {"measurement": "HEMOGLOBIN", "setting": "[2]", "value": 12.88, "unit": "G/DL"}, {"measurement": "LEUKOCYTE COUNT", "setting": "[2]", "value": 15.37, "unit": "x10E3/uL"}, {"measurement": "LYMPHOCYTE", "setting": "[2]", "value": 80.83, "unit": "%"}, {"measurement": "MEAN CORPUSCULAR HEMOGLOBIN", "setting": "[2]", "value": 21.18, "unit": "pg"}, {"measurement": "MEAN CORPUSCULAR HEMOGLOBIN CONCENTRATION", "setting": "[2]", "value": 36.43, "unit": "G/DL"}, {"measurement": "MEAN CORPUSCULAR VOLUME", "setting": "[2]", "value": 58.17, "unit": "fL"}, {"measurement": "NUCLEATED RED BLOOD CELLS", "setting": "[2]", "value": "0.17 /100WBC"}, {"measurement": "PLATELET COUNT", "setting": "[2]", "value": 1016, "unit": "x10E3/uL"}, {"measurement": "ALANINE AMINOTRANSFERASE", "setting": "[2]", "value": 53.33, "unit": "u/L"}, {"measurement": "ALBUMIN", "setting": "[2]", "value": 3.93, "unit": "G/DL"}, {"measurement": "ALKALINE PHOSPHATASE", "setting": "[2]", "value": 319.83, "unit": "u/L"}, {"measurement": "ASPARTATE AMINOTRANSFERASE", "setting": "[2]", "value": 84, "unit": "u/L"}, {"measurement": "BLOOD UREA NITROGEN", "setting": "[2]", "value": 15.5, "unit": "mg/dL"}, {"measurement": "CARBON DIOXIDE", "setting": "[2]", "value": 34, "unit": "mmol/L"}, {"measurement": "CHLORIDE", "setting": "[2]", "value": 101.83, "unit": "MEQ/L"}, {"measurement": "CHOLESTEROL", "setting": "[2]", "value": 57, "unit": "mg/dL"}, {"measurement": "CREATININE", "setting": "[2]", "value": 0.21, "unit": "mg/dL"}, {"measurement": "LACTATE DEHYDROGENASE", "setting": "[2]", "value": 104.67, "unit": "u/L"}, {"measurement": "LIPASE", "setting": "[2]", "value": 9.17, "unit": "u/L"}, {"measurement": "PHOSPHORUS", "setting": "[2]", "value": 11.12, "unit": "mg/dL"}, {"measurement": "POTASSIUM", "setting": "[2]", "value": 5.81, "unit": "MEQ/L"}, {"measurement": "SODIUM", "setting": "[2]", "value": 144.85, "unit": "MEQ/L"}, {"measurement": "TOTAL BILIRUBIN", "setting": "[2]", "value": 0.18, "unit": "mg/dL"}, {"measurement": "TOTAL PROTEIN", "setting": "[2]", "value": 5.92, "unit": "G/DL"}, {"measurement": "ABSOLUTE BASOPHIL", "setting": "[3]", "value": 0, "unit": "CELLS/uL"}, {"measurement": "ABSOLUTE EOSINOPHIL", "setting": "[3]", "value": 121.6, "unit": "CELLS/uL"}, {"measurement": "ABSOLUTE LYMPHOCYTE", "setting": "[3]", "value": 13213.6, "unit": "CELLS/uL"}, {"measurement": "ABSOLUTE MONOCYTE", "setting": "[3]", "value": 369.4, "unit": "CELLS/uL"}, {"measurement": "ABSOLUTE SEGMENTED NEUTROPHIL", "setting": "[3]", "value": 2115.4, "unit": "CELLS/uL"}, {"measurement": "BASOPHIL", "setting": "[3]", "value": 0, "unit": "%"}, {"measurement": "EOSINOPHIL", "setting": "[3]", "value": 0.8, "unit": "%"}, {"measurement": "ERYTHROCYTE COUNT", "setting": "[3]", "value": 6.78, "unit": "x10E6/uL"}, {"measurement": "HEMOGLOBIN", "setting": "[3]", "value": 14.32, "unit": "G/DL"}, {"measurement": "LEUKOCYTE COUNT", "setting": "[3]", "value": 15.82, "unit": "x10E3/uL"}, {"measurement": "LYMPHOCYTE", "setting": "[3]", "value": 84.2, "unit": "%"}, {"measurement": "MEAN CORPUSCULAR HEMOGLOBIN", "setting": "[3]", "value": 21.14, "unit": "pg"}, {"measurement": "MEAN CORPUSCULAR HEMOGLOBIN CONCENTRATION", "setting": "[3]", "value": 36.3, "unit": "G/DL"}, {"measurement": "MEAN CORPUSCULAR VOLUME", "setting": "[3]", "value": 58.22, "unit": "fL"}, {"measurement": "NUCLEATED RED BLOOD CELLS", "setting": "[3]", "value": "0 /100WBC"}, {"measurement": "PLATELET COUNT", "setting": "[3]", "value": 976, "unit": "x10E3/uL"}, {"measurement": "ALANINE AMINOTRANSFERASE", "setting": "[3]", "value": 53.2, "unit": "u/L"}, {"measurement": "ALBUMIN", "setting": "[3]", "value": 4.38, "unit": "G/DL"}, {"measurement": "ALKALINE PHOSPHATASE", "setting": "[3]", "value": 383.4, "unit": "u/L"}, {"measurement": "ASPARTATE AMINOTRANSFERASE", "setting": "[3]", "value": 82, "unit": "u/L"}, {"measurement": "BLOOD UREA NITROGEN", "setting": "[3]", "value": 15.6, "unit": "mg/dL"}, {"measurement": "CARBON DIOXIDE", "setting": "[3]", "value": 34.2, "unit": "mmol/L"}, {"measurement": "CHLORIDE", "setting": "[3]", "value": 99.8, "unit": "MEQ/L"}, {"measurement": "CHOLESTEROL", "setting": "[3]", "value": 80.2, "unit": "mg/dL"}, {"measurement": "CREATININE", "setting": "[3]", "value": 0.21, "unit": "mg/dL"}, {"measurement": "LACTATE DEHYDROGENASE", "setting": "[3]", "value": 111.2, "unit": "u/L"}, {"measurement": "LIPASE", "setting": "[3]", "value": 9, "unit": "u/L"}, {"measurement": "PHOSPHORUS", "setting": "[3]", "value": 11.84, "unit": "mg/dL"}, {"measurement": "POTASSIUM", "setting": "[3]", "value": 6.19, "unit": "MEQ/L"}, {"measurement": "SODIUM", "setting": "[3]", "value": 147.16, "unit": "MEQ/L"}, {"measurement": "TOTAL BILIRUBIN", "setting": "[3]", "value": 0.14, "unit": "mg/dL"}, {"measurement": "TOTAL PROTEIN", "setting": "[3]", "value": 6.7, "unit": "G/DL"}]}]}
